Measured values published in paper PMC8529588 (Nature chemical biology, 2021).
Where no end group is shown, it is not given here. [ ]: non-standard residue; d: D form. The star is where a group is joined. Biotin = O=C1N[C@H]2[C@H](CS[C@H]2CCCCC(=O)*)N1; pT = C[C@@H](OP(=O)(O)O)[C@H](N)C(=O)O

T1: Fbxo48-V5 (Homo sapiens, UniProt Q5FWF7)
T1 sequence (Q5FWF7 1-155): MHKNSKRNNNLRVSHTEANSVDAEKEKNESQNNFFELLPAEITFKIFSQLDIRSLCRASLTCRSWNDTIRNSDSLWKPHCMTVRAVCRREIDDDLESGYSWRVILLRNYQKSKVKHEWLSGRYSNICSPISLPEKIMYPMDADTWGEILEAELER

T2: Purified human Fbxo48 protein (recombinant, HIS-tagged) (human, UniProt Q5FWF7 1-155)
T2 sequence: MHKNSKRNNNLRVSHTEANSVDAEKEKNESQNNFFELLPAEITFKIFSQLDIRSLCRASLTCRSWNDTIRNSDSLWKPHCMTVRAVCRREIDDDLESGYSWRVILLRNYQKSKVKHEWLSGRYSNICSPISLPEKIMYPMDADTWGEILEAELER


Experiments:
[1] = target: T1, Fbxo48-V5; assay: cellular thermal shift assay; assay type: cell-based; conditions: 3 μM BC1618, 30 min, HEK293/293T cells; Fbxo30-V5 as negative control
[2] = target: T2, Purified human Fbxo48 protein …; assay: pull-down

Row | binding result [2] | Molecule | cellular thermal shift assay (CETSA), immunoblot [1]
1 |  | OC(COc1ccc(C(F)(F)F)cc1)CN(Cc1ccccc1)Cc1ccccc1 (centres unmarked) [compound 2, BC1618] | BC1618 directly interacted with Fbxo48 but not Fbxo30 (negative control)
2 | binds | Biotin-DGEFLR[pT]SCGSPN [phospho-Ampkα peptide (Biotin-DGEFLRT(p)SCGSPN)] | 
